Assay in all cases: relative cell number vs DMSO control (72 h) (% of DMSO); higher = less growth inhibition (more cells)
What all share (details): sgRNA knockout: sgNT

Assay [1] has as its system HCC-38. On the procedure: (§1)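 QMAP-Seq: a pool of 5 breast cancer cell lines (ZR-75-1, SKBR3, HCC-38, MDA-MB-231, BT-20), each carrying 12 doxycycline-inducible Cas9 sgRNA perturbations (11 knockouts plus non-targeting sgNT), was treated with compounds for 72 h at four 10-fold doses (10 nM-10 uM or 1 nM-1 uM range). Barcodes were amplified and sequenced, and cell number was interpolated from 293T spike-in standard curves. The result is expressed as % of the median of DMSO wells. Two biological replicates.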

Assay [2] has as its system MDA-MB-231. The procedure: as §1
The subject of assay [3] is ZR-75-1. On the procedure: as §1
The subject of assay [4] is BT-20. On the procedure: as §1
Assay [5] concerns SKBR3. The procedure: as §1

Here are results for 6 compounds from the supplement of paper PMC7661543.

SMILES strings stand for the structures. ± gives the standard deviation of the averaged measurements.

Regarding `O=C(c1ccc(/C=C/c2n[nH]c3ccccc23)cc1)N1CCNCC1` [KW2449], the relative cell number was 88 ± 8 in assay [1] (10 nM); 87.64 ± 0.15 in assay [1] (100 nM); 81 ± 5.1 in assay [1] (1000 nM); 42.2 ± 5.9 in assay [1] (10000 nM); 103 ± 14 in assay [2] (10 nM); 116 ± 35 in assay [2] (100 nM). Also, the relative cell number in assay [2] (1000 nM) stood at 78.79 ± 0.17; in assay [2] (10000 nM), 35.4 ± 8.4; in assay [3] (10 nM), 75.6 ± 8.1; in assay [3] (100 nM), 104 ± 3.9; in assay [3] (1000 nM), 48.8 ± 12; in assay [3] (10000 nM) it was 56 ± 10. Further, the relative cell number was 109 ± 15 in assay [4] (10 nM); 89.6 ± 4.7 in assay [4] (100 nM); 113 ± 20 in assay [4] (1000 nM); 79.4 ± 13 in assay [4] (10000 nM); 69 ± 16 in assay [5] (10 nM); 72.7 ± 10 in assay [5] (100 nM). Also, the results for the relative cell number in assay [5] (1000 nM) and in assay [5] (10000 nM) were 104 ± 5.3 and 73.1 ± 49, respectively.
Take `COc1cc2nc(N3CCCN(C)CC3)nc(NC3CCN(Cc4ccccc4)CC3)c2cc1OC`: the relative cell number in assay [1] (10 nM) turned out to be 111 ± 19; in assay [1] (100 nM) it was 104 ± 19; in assay [1] (1000 nM) it was 85.8 ± 5.5; in assay [1] (10000 nM) it was 5.39 ± 3.1; in assay [2] (10 nM) it was 123 ± 5.1; in assay [2] (100 nM), 94.5 ± 18. Also, the relative cell number in assay [2] (1000 nM) stood at 80.2 ± 13; in assay [2] (10000 nM), 9.21 ± 8.3; in assay [3] (10 nM), 102 ± 40; in assay [3] (100 nM), 102 ± 45; in assay [3] (1000 nM) it was 109 ± 6.8; in assay [3] (10000 nM), 2.54 ± 0.52. In addition, the relative cell number in assay [4] (10 nM) amounted to 82 ± 20; in assay [4] (100 nM), 91.6 ± 8.2; in assay [4] (1000 nM) it was 84.4 ± 5.3; in assay [4] (10000 nM), 5.57 ± 2.9; in assay [5] (10 nM), 98.3 ± 25; in assay [5] (100 nM), 93.735 ± 0.032. Besides, the relative cell number in assay [5] (1000 nM) was found to be 75 ± 25; in assay [5] (10000 nM), 5.97 ± 3.4.
With `O=C(NOCC(O)CO)c1cc(Br)c(F)c(F)c1Nc1ccc(I)cc1F` (stereo not given), the relative cell number in assay [1] (10 nM) was 85.4 ± 6.8; in assay [1] (100 nM), 83.2 ± 6.4; in assay [1] (1000 nM), 81.8 ± 3.8; in assay [1] (10000 nM) it was 86.2 ± 8.4; in assay [2] (10 nM), 105 ± 17; in assay [2] (100 nM), 75.8 ± 19. The relative cell number in assay [2] (1000 nM) was determined as 56.5 ± 25; in assay [2] (10000 nM), 47.5 ± 17; in assay [3] (10 nM) it was 83.5 ± 48; in assay [3] (100 nM), 76.9 ± 7.1; in assay [3] (1000 nM), 71.2 ± 4.6; in assay [3] (10000 nM), 56.5 ± 2.3. The relative cell number in assay [4] (10 nM) was 86.8 ± 14; in assay [4] (100 nM), 86.9 ± 14; in assay [4] (1000 nM), 94.1 ± 9.3; in assay [4] (10000 nM) it was 83.5 ± 7.2; in assay [5] (10 nM), 118 ± 48; in assay [5] (100 nM), 123 ± 58. Moreover, the relative cell number in assay [5] (1000 nM) turned out to be 112 ± 36; in assay [5] (10000 nM), 83.5 ± 34.
For the compound `CC(C)(C(=O)NCC(F)(F)C(F)(F)F)C(=O)N[C@@H]1C(=O)Nc2ccccc2-c2ccccc21`, the relative cell number in assay [1] (10 nM) stood at 118 ± 3.9; in assay [1] (100 nM), 99.1 ± 4.5; in assay [1] (1000 nM), 107 ± 3.9; in assay [1] (10000 nM), 109 ± 13; in assay [2] (10 nM), 85.7 ± 7.5; in assay [2] (100 nM), 122 ± 30. For the same compound, the relative cell number in assay [2] (1000 nM) amounted to 104 ± 16; in assay [2] (10000 nM) it was 97.7 ± 28; in assay [3] (10 nM), 76.9 ± 11; in assay [3] (100 nM), 130 ± 2.6; in assay [3] (1000 nM) it was 92.1 ± 1.7; in assay [3] (10000 nM) it was 103 ± 30. The relative cell number is 102 ± 5.3 in assay [4] (10 nM); 109 ± 5.9 in assay [4] (100 nM); 107 ± 33 in assay [4] (1000 nM); 121 ± 1.3 in assay [4] (10000 nM); 91 ± 1.3 in assay [5] (10 nM); 133 ± 6.6 in assay [5] (100 nM). The relative cell number in assay [5] (1000 nM) was found to be 99 ± 36; in assay [5] (10000 nM), 109 ± 22.
Regarding `Cn1c(CCCC(=O)O)nc2cc(N(CCCl)CCCl)ccc21` [Bendamustine], the relative cell number in assay [1] (10 nM) worked out at 104 ± 6; in assay [1] (100 nM), 103 ± 1.1; in assay [1] (1000 nM) it was 109 ± 17; in assay [1] (10000 nM), 115 ± 4.3; in assay [2] (10 nM), 111 ± 13; in assay [2] (100 nM) it was 123 ± 10. For the same compound, the relative cell number was 95.8 ± 17 in assay [2] (1000 nM); 127 ± 3.8 in assay [2] (10000 nM); 82.4 ± 11 in assay [3] (10 nM); 123 ± 6.9 in assay [3] (100 nM); 63.7 ± 27 in assay [3] (1000 nM); 97.9 ± 9.2 in assay [3] (10000 nM). For the same compound, the relative cell number in assay [4] (10 nM) was 90.6 ± 14; in assay [4] (100 nM), 114 ± 25; in assay [4] (1000 nM), 112 ± 33; in assay [4] (10000 nM) it was 124 ± 14; in assay [5] (10 nM), 86.7 ± 9.2; in assay [5] (100 nM), 115 ± 21. The figures for the relative cell number in assay [5] (1000 nM) and in assay [5] (10000 nM) were 118 ± 21 and 109 ± 44, respectively.
Turning to `Nc1nc(OCc2cc(Br)cs2)c2[nH]cnc2n1` [Lomeguatrib], the relative cell number in assay [1] (10 nM) came to 98.2 ± 6.3; in assay [1] (100 nM) it was 88.5 ± 10; in assay [1] (1000 nM), 89.6 ± 22; in assay [1] (10000 nM) it was 81.9 ± 8.3; in assay [2] (10 nM), 117 ± 22; in assay [2] (100 nM), 125 ± 8.7. The relative cell number in assay [2] (1000 nM) stood at 127.8 ± 0.46; in assay [2] (10000 nM) it was 86.4 ± 4.3; in assay [3] (10 nM), 103 ± 42; in assay [3] (100 nM), 127 ± 3.4; in assay [3] (1000 nM), 78.2 ± 47; in assay [3] (10000 nM), 74.8 ± 5.2. Moreover, the relative cell number in assay [4] (10 nM) was 101 ± 13; in assay [4] (100 nM), 115 ± 3.5; in assay [4] (1000 nM), 89.5 ± 11; in assay [4] (10000 nM) it was 93.7 ± 13; in assay [5] (10 nM) it was 111 ± 1.7; in assay [5] (100 nM) it was 68.1 ± 13. In addition, the relative cell number stood at 104 ± 14 in assay [5] (1000 nM) and 90.4 ± 27 in assay [5] (10000 nM).
